# From patent publication US20260070887A1 (Shenzhen Zhongge Biological Technology Co., Ltd., priority 2022, published 2026)
# pIC50: −log10 of the molar value. Where two headings read alike, the source gives them in different places.
# Legend:
# OVCAR-3 cells = assay: OVCAR-3 cell proliferation (Cell Titer-Glo, 10 days); type: cell-based, human
# Method in brief: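 IC50 was fitted by nonlinear regression of percent inhibition versus the 0.1% DMSO control. Luminescence was read with Cell Titer-Glo after 10 days of co-culture of logarithmic-phase cells (400/well) with compound at 0.12 nM–10 μM final, in medium with 20% fetal bovine serum and 0.01 mg/mL insulin.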
# HCC1954 cells = assay: HCC1954 cell proliferation (Cell Titer-Glo, 6 days); type: cell-based; settings: KIF18A-sensitive tumor cells
# Description: (§1) The inhibitory effect on the KIF18A target by the compounds of the present disclosure was evaluated by testing the inhibitory effect on proliferation of HCC1954 and HCC1395 cells by the compounds of the present disclosure.
# (§2) HCC1954 (ATCC, CRL-2388) and HCC1395 (ATCC, CRL-2324) cells were cultured separately in RPMI-1640 complete medium (Gibco, A1049101) containing 20% fetal bovine serum (Gibco, 10099141C), 100 U penicillin, and 100 μg/mL streptomycin (Gibco, 15140-122). The Promega kit Cell Titer-Glo (Promega: G7572) was used in this method for test. • 1. HCC1954 (KIF18A-sensitive tumor cells) and HCC1395 (KIF18A-insensitive tumor cells) were cultured separately in T75 cell culture flasks (Corning, 430641), and the medium was placed in a 37° C., 5% CO2 incubator. • 2. When the cell density reached 70% to 80% (about 2 to 3 times per week), cells are passaged with trypsin (0.25% EDTA). • 3. The cell culture flask was taken out and the cells were separated by adding 2 mL of trypsin (0.25% EDTA source) for 5 minutes. • 4. Digestion was stopped by adding 8 mL of RPM1-1640 medium and the cell suspension was transferred to a centrifuge tube and centrifuged at 1000 rpm for 5 minutes. • 5. The cells were resuspended with 5 mL of RPMI-1640 medium. Cell density was adjusted to 5×10^3/mL (HCC1954), and 2.5×10^4/mL (HCC1395), respectively. • 6. 40 μL of cell solution was added to the 384-well plate (Corning, 3765). • 7. The 384-well plate was centrifuged at 1000 rpm for 1 minute. • 8. The cells were cultured overnight in a 37° C., 5% CO2 incubator. • 9. The next day, 40 nL of compound solution was added to the 384-well plate using Echo650. The plate was then placed in a 37° C., 5% CO2 incubator for 6 days. • 10. After 6 days, 20 μL of Cell-Titer-Glo (Promega, G7572) reagent was added per well. • 11. Luminescence values were measured using the EnVision Xcite Multilabel Reader (PerkinElmer, 2105-0020).
# (§3) The percentage of inhibition of cell proliferation by the test compound at each concentration was calculated by comparing with the values of the control group (0.1% DMSO). The IC50 values of the compounds were obtained by concentration-inhibition rate nonlinear regression analysis of the test compounds using GraphPad Prism 9.
# KIF18A = KIF18A (Homo sapiens (Human), UniProt Q8NI77); assay: KIF18A ATPase activity under tubulin stimulation (ADP-Glo assay); type: biochemical; settings: KIF18A 30 nM, ATP 150 μM, pig microtubules
# HCC1395 cells = assay: HCC1395 cell proliferation (Cell Titer-Glo, 6 days); type: cell-based; settings: KIF18A-insensitive tumor cells
# Description: as §1, §2, §3
# Chain of KIF18A (Q8NI77 whole entry): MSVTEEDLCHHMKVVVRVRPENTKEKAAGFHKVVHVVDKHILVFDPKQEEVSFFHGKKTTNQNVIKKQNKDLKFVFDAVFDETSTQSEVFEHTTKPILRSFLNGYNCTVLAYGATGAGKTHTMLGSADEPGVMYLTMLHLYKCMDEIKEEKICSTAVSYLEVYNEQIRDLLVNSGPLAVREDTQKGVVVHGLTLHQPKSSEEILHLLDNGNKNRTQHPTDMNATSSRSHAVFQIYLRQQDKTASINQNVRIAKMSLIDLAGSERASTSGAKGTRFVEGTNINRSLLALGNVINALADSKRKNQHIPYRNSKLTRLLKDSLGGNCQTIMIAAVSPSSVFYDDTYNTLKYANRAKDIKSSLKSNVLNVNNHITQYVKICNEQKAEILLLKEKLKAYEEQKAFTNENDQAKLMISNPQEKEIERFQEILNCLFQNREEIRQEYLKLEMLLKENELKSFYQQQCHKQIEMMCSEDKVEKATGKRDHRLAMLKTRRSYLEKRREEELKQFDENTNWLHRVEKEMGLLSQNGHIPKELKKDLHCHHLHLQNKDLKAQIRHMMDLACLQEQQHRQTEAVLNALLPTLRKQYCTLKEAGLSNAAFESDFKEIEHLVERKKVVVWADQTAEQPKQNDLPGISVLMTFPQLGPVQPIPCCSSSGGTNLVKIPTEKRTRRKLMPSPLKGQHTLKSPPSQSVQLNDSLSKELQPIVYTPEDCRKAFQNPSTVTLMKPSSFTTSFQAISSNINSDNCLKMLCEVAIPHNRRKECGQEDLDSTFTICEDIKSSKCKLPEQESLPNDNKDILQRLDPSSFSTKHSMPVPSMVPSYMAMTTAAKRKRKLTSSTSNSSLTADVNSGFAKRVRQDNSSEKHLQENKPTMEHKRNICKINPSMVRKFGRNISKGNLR
# Chain of KIF18A (P02550 whole entry partner): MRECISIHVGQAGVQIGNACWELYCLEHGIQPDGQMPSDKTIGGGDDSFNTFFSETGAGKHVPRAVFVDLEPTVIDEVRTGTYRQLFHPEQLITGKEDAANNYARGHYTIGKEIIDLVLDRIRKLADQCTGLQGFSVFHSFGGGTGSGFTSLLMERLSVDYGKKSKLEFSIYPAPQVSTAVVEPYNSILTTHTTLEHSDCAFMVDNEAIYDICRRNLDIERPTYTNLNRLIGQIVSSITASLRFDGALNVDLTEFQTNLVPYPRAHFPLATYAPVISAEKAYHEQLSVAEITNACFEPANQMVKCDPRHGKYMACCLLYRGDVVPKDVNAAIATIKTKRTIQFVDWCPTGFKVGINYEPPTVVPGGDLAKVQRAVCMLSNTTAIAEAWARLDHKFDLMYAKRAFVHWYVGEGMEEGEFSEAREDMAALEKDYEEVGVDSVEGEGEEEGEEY
# Chain of KIF18A (P02554 whole entry partner): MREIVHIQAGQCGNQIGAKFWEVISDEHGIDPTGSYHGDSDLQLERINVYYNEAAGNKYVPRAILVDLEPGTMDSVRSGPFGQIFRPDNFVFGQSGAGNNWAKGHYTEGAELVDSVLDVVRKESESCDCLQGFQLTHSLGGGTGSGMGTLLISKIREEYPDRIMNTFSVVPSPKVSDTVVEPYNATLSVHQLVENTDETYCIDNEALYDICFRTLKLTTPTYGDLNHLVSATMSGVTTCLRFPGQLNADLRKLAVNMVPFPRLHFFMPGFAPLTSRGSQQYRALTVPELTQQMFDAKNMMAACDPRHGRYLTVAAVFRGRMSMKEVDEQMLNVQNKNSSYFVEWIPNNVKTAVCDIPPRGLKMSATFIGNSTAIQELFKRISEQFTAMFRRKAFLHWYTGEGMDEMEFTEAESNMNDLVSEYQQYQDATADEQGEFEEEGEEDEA
Structure (SMILES),"pIC50 (OVCAR-3 cells; Homo sapiens, OVCAR-3, 240 h)","pIC50 (HCC1954 cells; Homo sapiens, HCC1954, 144 h)",pIC50 (KIF18A),"pIC50 (HCC1395 cells; Homo sapiens, HCC1395, 144 h)",pIC50 (OVCAR-3 cells),pIC50 (HCC1954 cells),pIC50 (HCC1395 cells)
"O=C(Nc1cccc2c1ccn2CC1CC1)c1ccc(NS(=O)(=O)CCO)cc1N1CCC2(CC1)CC2 [Example 9, N-(1-(cyclopropylmethyl)-1H-indole-4-(2-hydroxyethyl)sulfonamido)-2-(6-azaspiro[2.5]octan-6-yl)benzamide]",,,≥ 7.30,,6.30 to 7.30,6.30 to 8.00,< 5.30
"O=C(Nc1cccc2c1cc(Cl)n2CC1CC1)c1ccc(NS(=O)(=O)CCO)cc1N1CCC2(CC1)CC2 [Example 13, N-(2-chloro-1-(cyclopropylmethyl)-1H-indol-4-yl)-4-((2-hydroxyethyl)sulfonamide)-2-(6-azaspiro[2.5]octan-6-yl)benzamide]",,,6.30 to 7.30,,6.30 to 7.30,6.30 to 8.00,< 5.30
O=C(Nc1cccc2c1ncn2CC1CC1)c1ccc(NS(=O)(=O)CCO)cc1N1CCC2(CC1)CC2 [Example 16],,,≥ 7.30,,6.30 to 7.30,6.30 to 8.00,< 5.30
"O=C(Nc1cccc2c1oc(=O)n2CC1CC1)c1ccc(NS(=O)(=O)CCO)cc1N1CCC2(CC1)CC2 [Example 18, N-(3-(cyclopropylmethyl)-2-oxo-2,3-dihydrobenzo[d]oxazol-7-yl)-4-((2-hydroxyethyl)sulfonamido)-2-(6-azaspiro[2.5]oct-6-yl)benzamide]",6.30 to 7.30,< 5.30,≥ 7.30,< 5.30,,,
O=C(Nc1cc(F)cc2c1ccn2CC1CC1)c1ccc(NS(=O)(=O)CCO)cc1N1CCC2(CC1)CC2 [Example 50],,,6.30 to 7.30,,6.30 to 7.30,6.30 to 8.00,< 5.30
"O=C(Nc1ccc(F)c2c1ccn2CC1CC1)c1ccc(NS(=O)(=O)CCO)cc1N1CCC2(CC1)CC2 [Example 56, N-(1-(cyclopropylmethyl)-7-fluoro-1H-indol-4-yl)-4-((2-hydroxyethyl)sulfonamido)-2-(6-azaspiro[2.5]octan-6-yl)benzamide]",6.30 to 7.30,6.30 to 8.00,6.30 to 7.30,< 5.30,,,
"O=C(Nc1cccc2c1cc1n2CCC1)c1ccc(NS(=O)(=O)CCO)cc1N1CCC2(CC1)CC2 [Example 129, N-(2,3-dihydro-1H-pyrrolo[1,2-a]indol-8-yl)-4-((2-hydroxyethyl)sulfonamide)-2-(6-azaspiro[2.5]octan-6-yl)benzamide]",,,≥ 7.30,,,≥ 8.00,< 5.30
O=C(Nc1cccc2nn(CC3CC3)cc12)c1ccc(NS(=O)(=O)CCO)cc1N1CCC2(CC1)CC2 [Example 269],,,≥ 7.30,,6.30 to 7.30,6.30 to 8.00,< 5.30
"O=C(Nc1ccc(F)c2c1cc1n2CCOC1)c1ccc(NS(=O)(=O)CCO)cc1N1CCC2(CC1)CC2 [Example 305, N-(6-fluoro-3,4-dihydro-1H-[1,4]oxazino[4,3-a]indol-9-yl)-4-((2-hydroxyethyl)sulfonamido)-2-(6-azaspiro[2.5]oct-6-yl)benzamide]",6.30 to 7.30,6.30 to 8.00,≥ 7.30,< 5.30,,,
"CC1OCCn2c1cc1c(NC(=O)c3ccc(NS(=O)(=O)CCO)cc3N3CCC4(CC3)CC4)cccc12 (stereo not shown) [Example 311, 4-((2-hydroxyethyl)sulfonamido)-N-(1-methyl-3,4-dihydro-1H-[1,4]oxazinyl[4,3-a]indol-9-yl)-2-(6-azaspiro[2.5]oct-6-yl)benzamide]",,,≥ 7.30,,≥ 7.30,6.30 to 8.00,< 5.30
"CC1OCCn2c1cc1c(NC(=O)c3ccc(NS(=O)(=O)CCO)cc3N3CCC(=C(F)F)CC3)cccc12 (stereo not shown) [Example 320, 2-(4-(difluoromethylene)piperidin-1-yl)-4-((2-hydroxyethyl)sulfonamido)-N-(1-methyl-3,4-dihydro-1H-[1,4]oxazino[4,3-a]indol-9-yl)benzamide]",≥ 7.30,6.30 to 8.00,6.30 to 7.30,< 5.30,,,

# Further lines, results first:
"pIC50 (OVCAR-3 cells; Homo sapiens, OVCAR-3, 240 h)","pIC50 (HCC1954 cells; Homo sapiens, HCC1954, 144 h)",pIC50 (KIF18A),"pIC50 (HCC1395 cells; Homo sapiens, HCC1395, 144 h)",pIC50 (OVCAR-3 cells),pIC50 (HCC1954 cells),pIC50 (HCC1395 cells),Structure (SMILES)
≥ 7.30,≥ 8.00,6.30 to 7.30,< 5.30,,,,"Cc1cc(NC(=O)c2c(N)cc(NS(=O)(=O)CCO)cc2N2CCC3(CC2)CC3)nc(N2CCC(F)(F)CC2)n1 [Example 3, 2-amino-N-(2-(4,4-difluoropiperidin-1-yl)-6-methylpyrimidin-4-yl)-4-(2-hydroxyethylsulfonamido)-6-(6-azaspiro[2.5]octan-6-yl)benzamide]"
,,6.30 to 7.30,,6.30 to 7.30,6.30 to 8.00,,Nc1cc(NS(=O)(=O)CCO)cc(N2CCC3(CC2)CC3)c1C(=O)Nc1cccc2c1ccn2CC1CC1 [Example 41]
,,≥ 7.30,,6.30 to 7.30,6.30 to 8.00,< 5.30,"O=C(Nc1cccc2c1cc1n2CCCC1)c1ccc(NS(=O)(=O)CCO)cc1N1CCC2(CC1)CC2 [Example 126, 4-((2-hydroxyethyl)sulfonamide)-2-(6-azaspiro[2.5]octan-6-yl)-N-(6,7,8,9-tetrahydropyridine[1,2-a]indole-1)benzamide]"
6.30 to 7.30,6.30 to 8.00,6.30 to 7.30,< 5.30,,,,"CN1CCn2c(cc3c(NC(=O)c4ccc(NS(=O)(=O)CCO)cc4N4CCC5(CC4)CC5)cccc32)C1 [Example 234, 4-(2-hydroxyethyl)sulfonamido-N-(2-methyl-1,2,3,4-tetrahydropyrazino[1,2-a]indol-9-yl)-2-(6-azaspiro[2.5]octan-6-yl)benzamide]"
6.30 to 7.30,6.30 to 8.00,≥ 7.30,< 5.30,,,,"O=C(Nc1ccnc2c1cc1n2CCOC1)c1ccc(NS(=O)(=O)CCO)cc1N1CCC2(CC1)CC2 [Example 303, N-(8,9-dihydro-6H-pyrido[3′,2′:4,5]pyrrolo[2,1-c][1,4]oxazin-4-yl)-4-((2-hydroxyethyl)sulfonamido)-2-(6-azaspiro[2.5]octan-6-yl)benzamide]"
≥ 7.30,6.30 to 8.00,≥ 7.30,< 5.30,,,,"O=C(Nc1cccc2c1nc1n2CCOC1)c1ccc(NS(=O)(=O)CCO)cc1N1CCC2(CC1)CC2 [Example 304, N-(3,4-dihydro-1H-benzo[4,5]imidazo[2,1-c][1,4]oxazin-9-yl)-4-((2-hydroxyethyl)sulfonamido)-2-(6-azaspiro[2.5]octan-6-yl)benzamide]"
≥ 7.30,6.30 to 8.00,6.30 to 7.30,< 5.30,,,,"COC1c2cc3c(NC(=O)c4ccc(NS(=O)(=O)CCO)cc4N4CCC5(CC4)CC5)cccc3n2CCC1(F)F (stereo not shown) [Example 340, N-(8,8-difluoro-9-methoxy-6,7,8,9-tetrahydropyridino[1,2-a]indol-1-yl)-4-((2-hydroxyethyl)sulfonamido)-2-(6-azaspiro[2.5]oct-6-yl)benzamide]"
6.30 to 7.30,6.30 to 8.00,6.30 to 7.30,,,,,"CC1(C)Cc2nc3c(NC(=O)c4ccc(NS(=O)(=O)CCO)cc4N4CCC5(CC4)CC5)cccc3n2C1 [Example 490, N-(2,2-dimethyl-2,3-dihydro-1H-benzo[d]pyrrolo[1,2-a]imidazol-5-yl)-4-((2-hydroxyethyl)sulfonamido)-2-(6-azaspiro[2.5]oct-6-yl)benzamide]"
